These results are taken from patent US20230203095A1, “BIOLOGICAL PEPTIDE FOR TREATING LUNG DISEASES AND APPLICATION THEREOF” (SHANGHAI INSTITUTE OF PHARMACEUTICAL INDUSTRY CO., LTD., priority 2019, published 2023).

Like-named read-outs stand apart in the source and are kept apart here. Peptide text beside a SMILES is read from it. * marks the point of attachment. X1 = CC(=O)N[C@H]1C(*)O[C@H](CO)[C@@H](O)[C@@H]1O Bounds are passed on as bounds.

A short description of this data set: Stability of each 7-peptide compound in rat whole blood. The note with it: for recovery: rat whole blood, 37° C., 1000 ng/mL, read-out: Recovery rate (%) M±SD. It counts as in vitro ADME. How it is done:
Preparation of the test product: SP and SIPI-D00 were dissolved and diluted with an appropriate amount of 50% acetonitrile water containing 0.1% formic acid to obtain a working solution with a concentration of 200 µg/mL.
• 1) Fresh rat whole blood was added to the EP tube, and shaken gently to mix well; • 2) The EP tube was pre-incubated in a 37° C. water bath for 5 minutes; • 3) Each compound was added to start the reaction and continued to incubate at 37° C.; • 4) 50 µL sample was taken from the sample tube at 0, 2 min, 5 min, 10 min, 30 min, and 60 min, respectively, into the stop tube, 50 µL of ice-cold 7% perchloric acid was added, and shaken to stop the reaction; • 5) Sample was centrifuged at 13000 r/min for 10 min, 75 µL supernatant was aspirated, 60 µL1.25% ammonia water was added and mixed well. After filtered with […] microporous membrane, 20 µL sample was taken for LC-MS/MS analysis.

For `CC(=O)N[C@H]1C(OC[C@H](NC(=O)[C@@H](NC(=O)[C@H](Cc2ccc(O)cc2)NC(=O)[C@@H](NC(=O)[C@H](CCC(N)=O)NC(=O)CN)[C@@H](C)OC2O[C@H](CO)[C@@H](O)[C@H](O)[C@H]2NC(C)=O)[C@@H](C)O)C(=O)NCC(=O)O)O[C@H](CO)[C@@H](O)[C@@H]1O` (stereo partly shown) [SIPI-G9, GQT(Glc)YTS(Glc)G] (H-GQT(X1)YTS(X1)G-OH), the “stability in whole blood” value (compared with SP peptide) was “significantly higher than that of SP peptide”. Besides, the recovery is 100% (incubation time 0 min); 98.8 ± 4.6% (incubation time 2 min); 98.3 ± 2.9% (incubation time 5 min); 96.3 ± 4.9% (incubation time 10 min); 95.9 ± 1% (incubation time 30 min); over 90% (incubation time 60 min).
